Measured values taken from patent EP4703365A1, “QUINOLONE DERIVATIVE AND USE THEREOF AGAINST TUMORS” (Horizon Omics Biotech Limited, priority 2023, dated 2024).

Assays:
UWB1.289 Cells = test: Cell activity assay (CellTiterGlo, 6 days), BRCA1 gene-deficient ovarian cancer cells UWB1.289; assay type: cell-based; settings: UWB1289, 144 h, BRCA1 gene-deficient ovarian cancer cells UWB1.289, 6 days incubation
Protocol: (§1) • (1) Compound Treatment • a) Preparation of Stock Solutions of Compounds Test compounds were dissolved in DMSO at a concentration of 10 mM or 5 mM, and Olaparib was dissolved in DMSO at a concentration of 10 mM. • b) Compound Storage All compounds dissolved in DMSO were stored in a desiccator at room temperature for short-term storage and transferred to a -20°C refrigerator for long-term storage. • c) Preparation of Working Concentrations of Compounds
(§2) Test compounds were serially diluted in DMSO at a 3-fold gradient to prepare 10 concentration gradients, starting from 10 µM.
(§3) Olaparib was serially diluted in DMSO at a 3-fold gradient to prepare 10 concentration gradients, starting from 10 µM.
(§4) The 384-well plate loaded with the compounds was centrifuged at 1000 rpm for 1 minute.
(§5) • a) Cells were added to the culture medium and incubated in a cell culture incubator at 37°C with 5% CO2. • b) 40 µL of BRCA1- or BRCA2-deficient cells were added to a 384-well plate and incubated overnight at 37°C with 5% CO2. • c) The test compounds were prepared at different concentration gradients on the master plate, and 80 nL of the test compounds and Olaparib were taken from the master plate and added to the 384-well plate containing cells, and incubated at 37°C with 5% CO2 for 6 days. • d) CellTiterGlo (30 µL per well) was added to the 384-well plate, and after incubation at room temperature in the dark for 30 minutes, measurement was performed using an Envision plate reader.
(§6) • a) GraphPad Prism software was used to calculate the ICso and plot the activity curves as a function of concentration. • b) The inhibition of cell activity by the compounds was calculated using the following formula: % Inhibition = [1−(Cmpd−Blank)/(DMSO−Blank)]* 100 [formula]

DLD1 BRCA2^-/- = test: Cell activity assay (CellTiterGlo, 6 days), BRCA2 gene knockout DLD1 cancer cells; assay type: cell-based; settings: Homo sapiens, DLD-1, 144 h, 6 days incubation
Protocol: as §1, §2, §3, §4, §5, §6

hERG = hERG (Homo sapiens, UniProt Q12809); test: hERG cardiotoxicity assay (patch clamp, hERG stably expressed HEK 293 cell line); assay type: cell-based; settings: 5 doses applied cumulatively
Protocol: • 1) The hERG stably expressed HEK 293 cell line (Cat# K1236) was purchased from Invitrogen. Cells were cultured in a medium consisting of 85% DMEM, 10% FBS, 0.1 mM NEAA, 25 mM HEPES, 100 U/mL penicillin-streptomycin, 5 µg/mL Blasticidin, and 400 µg/mL Geneticin. Cells were passaged approximately three times a week using TrypLE™ Express and maintained at ~40% to ~80% confluency. Before assay, cells were placed on coverslips with 5×10^5 cells per 6-cm cell culture dish and induced with 1 µg/mL doxycycline for 48 hours. • 2) The coverslip was removed from the cell culture dish and placed on the microscope stage. A suitable cell was located using a 10× objective. The tip of the electrode was located under the microscope using the 10× objective, and the focus was adjusted to the plane of the cell. Once the tip was in focus, the coarse control of the manipulator was used to advance the electrode downward toward the cell while moving the objective to keep the tip in focus. When directly above the cell, the objective was switched to 40× objective, and the fine control of the manipulator was used to approach the cell surface in small steps. • 3) A blank control was first performed to establish a baseline. […] In the presence of the test compounds, the hERG current was recorded for approximately 5 minutes to reach a steady state, followed by capturing 5 scans. For dose-response testing, 5 doses of the test compounds were cumulatively applied to the cells from low to high concentrations. The positive control, dofetilide at a concentration of 150 nM, was applied to each cell, and the hERG current was measured in the test compounds at the highest concentration as a negative control to normalize the percentage of inhibition. To ensure good performance of the cultured cells and operations, cells from the same batch were also tested with 5 doses of dofetilide. Table 4. hERG Toxicity Assay Results

MDA-MB-436 = test: Cell activity assay (CellTiterGlo, 6 days), BRCA1 gene-deficient MDA-MB-436 cells; assay type: cell-based; settings: Homo sapiens, 144 h, BRCA1 gene-deficient MDA-MB-436, 6 days incubation
Protocol: as §1, §2, §3, §4, §5, §6

solid tumors = settings: NCT02719977, solid tumors in humans; cited from earlier work

hERG, sequence (Q12809 whole entry): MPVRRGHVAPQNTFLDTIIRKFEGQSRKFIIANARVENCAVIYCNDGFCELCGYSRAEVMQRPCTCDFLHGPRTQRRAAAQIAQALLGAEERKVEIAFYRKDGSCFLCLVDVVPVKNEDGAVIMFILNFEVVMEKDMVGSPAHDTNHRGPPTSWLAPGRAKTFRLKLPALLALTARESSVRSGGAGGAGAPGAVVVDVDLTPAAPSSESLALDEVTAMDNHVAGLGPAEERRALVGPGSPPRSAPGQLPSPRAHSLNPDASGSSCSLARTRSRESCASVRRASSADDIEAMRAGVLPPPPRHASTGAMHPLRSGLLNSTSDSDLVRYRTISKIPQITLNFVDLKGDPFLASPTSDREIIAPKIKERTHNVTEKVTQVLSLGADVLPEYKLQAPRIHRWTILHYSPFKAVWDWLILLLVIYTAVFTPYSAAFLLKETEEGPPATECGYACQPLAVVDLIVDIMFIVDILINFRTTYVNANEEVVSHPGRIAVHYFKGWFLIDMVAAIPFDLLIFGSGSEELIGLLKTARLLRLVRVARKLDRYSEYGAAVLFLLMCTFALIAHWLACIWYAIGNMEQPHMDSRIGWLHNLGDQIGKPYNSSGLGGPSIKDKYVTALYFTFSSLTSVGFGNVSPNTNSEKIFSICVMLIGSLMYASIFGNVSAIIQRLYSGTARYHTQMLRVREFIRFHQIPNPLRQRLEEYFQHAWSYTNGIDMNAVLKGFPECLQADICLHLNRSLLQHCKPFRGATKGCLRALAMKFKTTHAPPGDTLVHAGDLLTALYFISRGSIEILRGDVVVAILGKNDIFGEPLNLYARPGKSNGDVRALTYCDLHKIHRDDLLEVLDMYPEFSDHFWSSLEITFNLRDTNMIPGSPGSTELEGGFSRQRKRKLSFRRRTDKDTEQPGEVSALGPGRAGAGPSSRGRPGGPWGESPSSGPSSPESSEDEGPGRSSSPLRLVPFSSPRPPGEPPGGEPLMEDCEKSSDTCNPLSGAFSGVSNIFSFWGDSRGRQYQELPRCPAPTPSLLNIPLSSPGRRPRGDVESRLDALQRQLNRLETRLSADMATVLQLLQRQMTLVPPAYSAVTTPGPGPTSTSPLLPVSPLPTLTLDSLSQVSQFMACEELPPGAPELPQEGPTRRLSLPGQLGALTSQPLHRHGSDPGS

SMILES	IC50 (UWB1.289 Cells) [nM]	IC50 (DLD1 BRCA2^-/-) [nM]	IC50 (MDA-MB-436) [nM]	IC50 (hERG) [nM]	adverse effects observed (solid tumors)
O=C(c1cc(Cc2n[nH]c(=O)c3ccccc23)ccc1F)N1CCN(C(=O)C2CC2)CC1 [Olaparib, reference compound]	716	–	240	–	–
CN1CCCN(c2ccc3c(=O)c(C(=O)NCCN4CCC4)c4sc5ccccc5n4c3n2)CC1 [Compound C]	4.9	4.8	–	–	–
CN1CCCN(c2ccc3c(=O)c(C(=O)NC4CC4)c4sc5ccccc5n4c3n2)CC1 [Compound F]	40.6	17.2	–	–	–
CNC(=O)c1c(=O)c2ccc(N3CCCN(C)CC3)nc2n2c1sc1ccccc12 [Compound E]	39.8	11	7.7	–	–
CN1CCCN(c2ccc3c(=O)c(C(=O)NCCN4CCCC4)c4sc5ccccc5n4c3n2)CC1 [Compound D]	5.8	4.3	–	–	–
CN1CCCN(c2ccc3c(=O)c(C(=O)NCc4n[nH]c(=O)c5ccccc45)c4sc5ccccc5n4c3n2)CC1 [Compound G-2]	–	–	–	> 10000	–

Second part, led by results:

IC50 (UWB1.289 Cells) [nM]	IC50 (DLD1 BRCA2^-/-) [nM]	IC50 (MDA-MB-436) [nM]	SMILES	IC50 (hERG) [nM]	adverse effects observed (solid tumors)
40.4	32.7	–	CN1CCCN(c2ccc3c(=O)c(C(=O)NCc4ccc(=O)[nH]n4)c4sc5ccccc5n4c3n2)CC1 [Compound G-1]	> 30000	–
–	–	10	Cc1cnc(CNC(=O)c2c(=O)c3ccc(N4CCCN(C)CC4)nc3n3c2sc2ccccc23)cn1 [CX-5461]	5060	phototoxicity, neutropenia, acral erythema, and nausea
